Test results from PubChem BioAssay AID1845209 (Molecular Pharmacology Branch, DTP, NCI, 2023).
Several values for one entry are separate records, joined by “and”; a condition that tells them apart may be missing. Equal values may be shown once. Activity calls are given as the source filed them. How the source made its calls: active means viability on the fitted dose curve at most 10% of control; inactive means the rest.

System: NCI-H211 tumor spheroids, viability percent test/control
Assay: Anticancer human tumor NCI-H211 cell line growth inhibition;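 on IC50: spheroids exposed to agents for seven days before readout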;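 on viability, T/C: spheroids exposed to agents for seven days before readout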
Details: spheroids with HUVEC and MSC; for viability, T/C: stronger effect = lower value
Description: Multicellular complex tumor spheroid response to DNA repair inhibitors in combination with DNA-damaging drugs
This study explores the anticancer activities of DNA-damaging drugs and inhibitors of DNA damage repair, both as single agents and in combinations. Complex tumor spheroids comprised of malignant cells, endothelial cells and mesenchymal stem cells served as an in vitro model for human solid tumors. This model system incorporates physiologically relevant features and patient-derived or established malignant cell lines with clinically relevant genetic alterations from many tumor types. Twenty-six patient-derived or established malignant cell lines were evaluated representing sarcoma, melanoma, small cell lung cancer (SCLC), non-small cell lung cancer (NSCLC), as well as bladder, ovarian and pancreatic cancers. The concentration ranges selected for each drug and investigational agent were based upon clinically achievable concentrations if the clinical Cmax of the agent was known.
Compounds. The drugs and compounds olaparib (NSC753686), talazoparib (NSC767125), berzosertib (NSC777718), elimusertib (NSC800525), nedisertib (NSC802822), VX-984 (NSC792969), AZD-1390 (NSC803789), temozolomide (NSC362856), topotecan (NSC609699), trabectedin (NSC813783), staurosporine (NSC755774), and gemcitabine (NSC613327) were obtained from the National Cancer Institute (NCI) Developmental Therapeutics Program Chemical Repository. The FDA-approved anticancer drug set is available from the Developmental Therapeutics Program at https://dtp.cancer.gov/organization/dscb/obtaining/available_plates.htm. […] The stock solutions were prepared in dimethyl sulfoxide (DMSO, Sigma-Aldrich, St. Louis, MO, cat. D2650) at 400-fold the tested concentration and stored at -70 degrees C. Prior to their use, the stock solutions were diluted in fresh medium and the final DMSO concentration in the assay was 0.25% (v/v). All drugs and investigational agents were tested over a range starting from a high concentration at or near the clinical Cmax and decreasing in half-log increments. If the clinical Cmax for an agent had not been determined, the highest concentration tested was 10 microM.
Cell Lines. The patient-derived cancer cell (PDC) lines: 156681-154-R-J1-PDC, 283228-195-R-J1-PDC, 287954-098-R-J1-PDC, 292921-168-R-J2-PDC, 349418-098-R-PDC, 425362-245-T-J1-PDC, 556581-035-R-J1-PDC, and BL0293-F563-PDC were received from the NCI Patient-Derived Models Repository (PDMR, https://pdmr.cancer.gov). The established cell lines HS-SY-2 (RRID:CVCL_8719), MPNST, and SYO-1 (RRID:CVCL_7146) were obtained from the Sloan Kettering Institute. The alveolar soft parts sarcoma cell line ASPS-1 (RRID:CVCL_S738) was established at the NCI and grown from internal seed stocks. The following established cell lines were purchased from the American Type Culture Collection (ATCC, Manassas, VA): G-401 (ATCC, cat. CRL-1441, RRID:CVCL_0270), SW982 (ATCC, cat. HTB-93, RRID:CVCL_1734), VA-ES-BJ (ATCC, cat. CRL-2138, RRID:CVCL_1785), NCI-H719 (ATCC, cat. CRL-5837, RRID:CVCL_1582), NCI-H196 (ATCC, cat. CRL-5823, RRID:CVCL_1509), NCI-H841 (ATCC, cat. CRL-5845, RRID:CVCL_1595), NCI-H1618 (ATCC, cat. CRL-5879, RRID:CVCL_1480), NCI-H1876 (ATCC, cat. CRL-5902, RRID:CVCL_1503), DMS 114 (ATCC, cat. CRL-2066; RRID:CVCL_1174), NCI-H211 (ATCC, cat. CRL-5824; RRID:CVCL_1529), and SW 1271 (ATCC, cat. CRL-2177, RRID:CVCL_1716). The small cell lung cancer cell line COR-L88 was purchased from Sigma-Aldrich (cat. 92031917-1VL, RRID:CVCL_1141). The non-small cell lung cancer cell lines NCI-H226 (RRID:CVCL_1544) and NCI-H322M (RRID:CVCL_1557) were established at the NCI and grown from internal seed stocks. Pooled donor human umbilical vein endothelial cells (HUVEC, Lonza, cat. CC-2519) and human mesenchymal stem cells (hMSC, Lonza, cat. PT-2501) were purchased from Lonza (Walkersville, MD).
Cell Culture. All cells were maintained in an incubator at 37 degrees C and 5% CO2 with 95% humidity. […]

[1] = compound alone, run of 12/16/2019

Structure (SMILES) | viability, T/C (compound 0.0316 µM) | viability, T/C (compound 0.1 µM) | viability, T/C (compound 0.316 µM) | viability, T/C (compound 1 µM) | viability, T/C (compound 3.16 µM) | viability, T/C (compound 10 µM) | IC50 (curve of compound) | viability, T/C (compound 0.00949 µM) | viability, T/C (compound 0.03 µM) | viability, T/C (compound 0.0949 µM) | viability, T/C (compound 0.3 µM) | viability, T/C (compound 0.949 µM) | viability, T/C (compound 3 µM) | also measured
CC(C)n1c(=O)n(C)c2cnc3cc(F)c(-c4ccc(OCCCN5CCCCC5)nc4)cc3c21 | 91.8% and 79.6% and 91.9% | 62.7% and 60.5% and 86.8% | 77.7% and 54.9% and 93.9% | 76.7% and 57.7% and 85.2% | 66.6% and 43.2% and 68.5% | 23.9% and 14.7% and 17.5% | 4950 nM and 1310 nM and 4790 nM | – | – | – | – | – | – | –
CC1COCCN1c1cc(-c2ccnn2C)c2ccnc(-c3ccn[nH]3)c2n1 (stereo not drawn) | – | 0.66% and 1.94% and 4.83% | 0.63% and 0.89% and 0.78% | 0.57% and 0.81% and 0.58% | 0.43% and 0.84% and 0.58% | 0.61% and 1.42% and 0.85% | < 31.6 nM | – | – | – | – | – | – | –
CC[C@@]1(O)C(=O)OCc2c1cc1n(c2=O)Cc2cc3c(CN(C)C)c(O)ccc3nc2-1 | – | – | – | – | – | – | – | 12.2% [middle of 10 runs] | 1.13% [middle of 10 runs] | 1.05% [middle of 10 runs] | 1.08% [middle of 10 runs] | – | – | IC50 (compound alone, run of 11/07/2019): 4.84 nM [middle of 4 runs]; IC50 [1]: 6.27 nM [middle of 5 runs]
CNCc1ccc(-c2cc(-c3nc(-c4ccc(S(=O)(=O)C(C)C)cc4)cnc3N)on2)cc1 | – | – | – | – | – | – | 22.6 nM and 34.8 nM and 53.7 nM | 66.6% and 86.6% and 97.1% | 44.6% and 56.7% and 86.2% | 9.22% and 5.33% and 14.5% | 1.18% and 1.04% and 0.87% | 0.24% and 0.22% and 0.59% | 0.17% and 0.19% (2×) | –
COc1cc(C)[nH]c(=O)c1CN1CCc2c(Cl)cc(C(OC)C3COC3)c(Cl)c2C1=O (stereo not drawn) | 98.9% and 97.3% and 103% | 92.9% and 105% and 99.4% | 81.8% and 93.7% and 96.8% | 92.6% and 78.5% and 88.5% | 87.9% and 84.4% and 87.8% | 83.7% and 89.1% and 85.7% | > 10000 nM | – | – | – | – | – | – | –
COc1cc2c(cc1O)CCNC21CSC2c3c(OC(C)=O)c(C)c4c(c3C(COC1=O)N1C(O)C3Cc5cc(C)c(OC)c(O)c5C(C21)N3C)OCO4 (stereo not drawn) | – | – | – | – | – | – | – | – | – | – | – | – | – | viability, T/C (compound 94.9 pM): 21.3% [middle of 10 runs]; viability, T/C (compound 0.0003 µM): 0.79% [middle of 8 runs]; viability, T/C (compound 0.000949 µM): 0.7% [middle of 9 runs]; viability, T/C (compound 0.003 µM): 0.13% [middle of 6 runs]; IC50 [1]: 0.0665 nM and 0.0583 nM and 0.0631 nM
COc1ccc([C@@H](O)c2cc(-c3ncnc4cc(N5CCOCC5)ccc34)c(F)cc2Cl)nn1 | 102% and 96.3% and 105% | 100% and 102% and 109% | 95.9% and 93.1% and 104% | 90.3% and 101% | 74.8% and 85% and 96% | 11.4% and 40.7% and 40.8% | 4870 nM and 7850 nM and 8300 nM | – | – | – | – | – | – | outcome (compound 1 µM): inactive
Cc1cc(C)c(CNC(=O)c2cc(-c3ccc(CN4CCOCC4)cc3)cc3c2cnn3C2CCCC2)c(=O)[nH]1 | 106% and 79.2% and 96.2% | 102% (2×) and 89.3% | 102% and 95.7% and 100% | 96.7% and 87.9% and 102% | 91.7% and 82.2% and 104% | 52% and 33.5% and 63.2% | > 10000 nM and 6780 nM | – | – | – | – | – | – | –
Cc1sc2c(c1C)C(c1ccc(Cl)cc1)=NC(CC(=O)Nc1ccc(O)cc1)c1nnc(C)n1-2 (stereo not drawn) | – | – | – | – | – | – | < 9.49 nM and 10.8 nM and 12.7 nM | 22.6% and 55.5% and 64.2% | 3.79% and 7.14% and 8.47% | 1.01% and 1.07% and 0.73% | 0.87% and 0.68% and 0.48% | 0.92% and 0.62% and 0.4% | 0.83% and 0.65% and 0.43% | –
Cn1ncnc1[C@H]1c2n[nH]c(=O)c3cc(F)cc(c23)N[C@@H]1c1ccc(F)cc1 | – | – | – | – | – | – | < 9.49 nM | 1.22% and 3.94% and 1.23% | 1.16% and 3.82% and 0.82% | 1.19% and 4.14% and 0.91% | 1.37% and 3.79% and 0.88% | 1.35% and 4.02% and 0.84% | 1.37% and 3.65% and 1.07% | –
Cn1nnc2c(C(N)=O)ncn2c1=O | – | – | – | 98.3% [middle of 10 runs] | – | 92.8% [middle of 10 runs] | – | – | – | – | – | – | – | –
O=C(c1cc(Cc2n[nH]c(=O)c3ccccc23)ccc1F)N1CCN(C(=O)C2CC2)CC1 | – | – | – | – | – | – | < 94.9 nM and 224 nM and 401 nM | – | – | 36% and 73% and 92.9% | 30.1% and 42.2% and 63.5% | 14.9% and 5.83% and 9.79% | 9.02% and 1.22% and 0.8% | viability, T/C (compound 9.49 µM): 8.37% and 1.02% and 0.69%; viability, T/C (compound 30 µM): 7.89% and 0.93% and 0.73%
[2H]c1nc(C)nc([2H])c1-c1cc(NC[C@@H](C)c2cccc3c(C(=O)NC)ccnc23)ncn1 | 105% and 102% and 99.5% | 103% and 92.2% and 90.7% | 111% and 103% and 77.5% | 102% and 99.2% and 90% | 105% and 107% and 89.8% | 103% (2×) and 97.1% | > 10000 nM | – | – | – | – | – | – | –
